Like-named read-outs stand apart in the source and are kept apart here.
Assays:
[1] = system: plasma lipid in KK-Ay mice; experiment: Pharmacological test in KK-Ay mice; type: in vivo, male KK-Ay mice; conditions: oral once a day for 7 days, relative to control group
Procedure: The influence of test compounds on plasma lipid in vivo was investigated with KK-Ay mice. A 0.5% methyl cellulose suspension containing a test compound was forcedly orally administered to male KK-Ay mice once a day for continuos 7 days. After the final administration, the mice were fed with nothing, and after 6 hours, their blood was collected under anesthetization with diethyl ether. Using the automatic analyzer, Hitachi's Model 7250, the total cholesterol, HDL cholesterol and triglyceride in plasma were measured. Non-HDL cholesterol was obtained by subtracting HDL cholesterol from total cholesterol. The plasma lipid lowering effect of the test compound was expressed in percentage relative to the control group.

[2] = system: plasma lipid in high-cholesterol feed-loaded rats; experiment: Pharmacological test on high-cholesterol feed-loaded rats; type: in vivo; conditions: high-cholesterol feed-loaded male SD rats, oral once a day for 7 days, relative to control group; for ED50: Rattus norvegicus, 168 h, read-out: ED50 non-HDL cholesterol lowering effect
Procedure: 3. Pharmacological Test on High-Cholesterol Feed-Loaded Rats
The influence of test compounds on plasma lipid in vivo was investigated with high-cholesterol feed-loaded rats. A 0.5% methyl cellulose suspension containing a test compound was forcedly orally administered to male SD rats loaded with high-cholesterol feed (1.5% cholesterol, 10% coconut oil, 0.5% cholic acid), once a day for continuous 7 days. After the final administration, the rats were fed with nothing, and after 6 hours, their blood was collected under anesthetization with diethyl ether. Using an automatic analyzer, Hitachi's Model 7250, the total cholesterol, HDL cholesterol and triglyceride in plasma were measured. Non-HDL cholesterol was obtained by subtracting HDL cholesterol from total cholesterol. The non-HDL cholesterol lowering effect of the test compound, relative to the control group, was represented by ED50.

[3] = system: VLDL secretion in vivo in rats; experiment: Measurement of blood cholesterol and triglyceride in rats (VLDL secretion, Triton WR-1339); conditions: male SD rats, oral, Triton WR-1339 400 mg/kg i.v. after 1 hour, blood after 4 hours; for ED50: Rattus norvegicus
Procedure: 2. Measurement of Blood Cholesterol and Triglyceride in Rats
The influence of test compounds on VLDL secretion in vivo in rats was investigated. A 0.5% methyl cellulose suspension containing a test compound was orally administered to male SD rats. After 1 hour, a physiological saline solution of Triton WR-1339 (corresponding to 400 mg/kg) was injected through the caudal vein. After 4 hours, their blood was collected under anesthetization with diethyl ether. The total cholesterol and triglyceride in blood were measured by the use of “Cholesterol C Test Wako” and “Triglyceride G Test Wako” (both from Wako Pure Chemical Industries), respectively. The rats orally administered with the 0.5% methyl cellulose solution and then intravenously injected with physiological saline were used as a normal group, and those orally administered with the 0.5% methyl cellulose solution and then intravenously injected with physiological saline of Triton WR-1339 were used as a control group. The difference in the total cholesterol (TC) or triglyceride (TG) in the serum between the control group and the normal group was defined as the amount of secretion per hour, and the lowering effect in the amount of secretion of the test compound was represented by ED50.

[4] = system: apo B-related lipoprotein secretion in Hep G2 cells; experiment: Measurement of apo B-related lipoprotein secretion in liver cells (Hep G2, enzyme immunoassay); type: cell-based, human; conditions: culture supernatant
Procedure: 1. Measurement of Apo B-Related Lipoprotein Secretion in Liver Cells
Hep G2 cells were cultured in a 96-well plate using a 10% fetal bovine serum-containing Dulbecco's modified Eagle's medium (to be referred to as “10% FBS-containing DMEM” hereinafter). The medium was exchanged with a 10% FBS-containing DMEM that contained a DMSO solution of the test compound (DMSO final concentration 0.1%), and the cells were further incubated therein for 18 hours to obtain the culture supernatant. The culture supernatant obtained from a 10% FBS-containing DMEM that contained DMSO alone (final concentration 0.1%) was used as the control. The apo B-related lipoprotein produced in the culture supernatant was determined through an enzyme immunoassay in the manner mentioned below.
A solution of anti-human apolipoprotein B monoclonal antibody (4 μg/ml) was dispensed in 100 μl portions into a 96-well immunoassay plate and kept at 4° C. for 18 hours. Each well was washed three times with a phosphate buffer to which had been added 0.1% Tween 20 (to be referred to as “PBS-T” hereinafter), and 300 μl of a 4-fold diluted immune blocker “Block Ace” was added thereto and kept at 37° C. for 1 hour. The aforementioned culture supernatant was added to it, and kept at 37° C. for 3 hours. This was washed three times with PBS-T, and then 100 μl of a solution of caprine anti-human apolipoprotein B polyclonal antibody (2,000-fold dilution) was added to it and kept at 37° C. for 1 hour. This was washed three times with PBS-T, and then 100 μl of a solution of alkaline phosphatase-labeled anti-caprine IgG antibody (2,000-fold dilution) was added thereto and kept at 37° C. for 1 hour. This was washed four times with PBS-T, once with PBS and then with a carbonate buffer (pH 9.5), and 100 μl of a solution of an alkaline phosphatase substrate was added thereto and kept at room temperature for 5 minutes. A 50 μl portion of 0.2 M sodium hydroxide was added to it to stop the reaction, and the absorbance at 405 nm was measured. From the calibration curve based on a standard, human low-density lipoprotein, the absolute amount of apo B-related lipoprotein was obtained.

[5] = read-out: ED50 TC (total cholesterol secretion lowering effect)
[6] = read-out: ED50 TG (triglyceride secretion lowering effect)
[7] = Homo sapiens, HepG2, 18 hours incubation

Compound	Lowering rate TG ([1]; dose 3 mg/kg) [%]	Lowering rate non-HDL ([1]; dose 3 mg/kg) [%]	ED50 [2] [mg/kg]	ED50 [3, 5] [mg/kg]	ED50 [3, 6] [mg/kg]	IC50 [4, 7] [nM]	ED50 non-HDL cholesterol lowering effect [2] [mg/kg]	ED50 TC (total cholesterol secretion lowering effect) [3] [mg/kg]	ED50 TG (triglyceride secretion lowering effect) [3] [mg/kg]	IC50 ([4]; 18 hours incubation) [nM]	Lowering rate TG ([1]; dose 10 mg/kg) [%]	Lowering rate non-HDL ([1]; dose 10 mg/kg) [%]
Cc1nc2c(c(C)c1CCC(=O)O)c1ccccc1n2Cc1ccc([C@@H](C(=O)N2CCN(c3ccccn3)CC2)C2CCOCC2)cc1 [Example 17, (−)-3-(2,4-Dimethyl-9-{4-[(S)-2-oxo-2-(4-pyridin-2-ylpiperazin-1-yl)-1-(tetrahydro-2H-pyran-4-yl)ethyl]benzyl}-9H-pyrido[2,3-b]indol-3-yl)propanoic acid]	86	85	0.14	0.74	0.39	4.8	–	–	–	–	–	–
CCCN1CCN(C(=O)[C@H](c2ccc(Cn3c4ccccc4c4c(C)c(CCC(=O)O)c(C)nc43)cc2)C2CCOCC2)CC1 [Example 18, (+)-3-(2,4-Dimethyl-9-{4-[(S)-2-oxo-2-(4-propylpiperazin-1-yl)-1-(tetrahydro-2H-pyran-4-yl)ethyl]benzyl}-9H-pyrido[2,3-b]indol-3-yl)propanoic acid]	87	85	0.2	0.5	0.52	3	–	–	–	–	–	–
Cc1nc2c(c(C)c1CCC(=O)O)c1ccccc1n2Cc1ccc([C@@H](C(=O)NCc2ccccc2)C2CCOCC2)cc1 [Example 19, (−)-3-(9-{4-[(S)-(benzylcarbamoyl)(tetrahydro-2H-pyran-4-yl)methyl]benzyl}-2,4-dimethyl-9H-pyrido[2,3-b]indol-3-yl)propanoic acid]	91	95	0.059	0.17	0.24	1.7	–	–	–	–	–	–
Cc1nc2c(c(C)c1CCC(=O)O)c1cc(F)ccc1n2Cc1ccc([C@@H](C(=O)NCc2ccccc2)C2CCOCC2)cc1 [Example 23]	96	91	–	–	–	–	0.063	0.27	0.19	–	–	–
Cc1nc2c(c(C)c1CCC(=O)O)c1ccc(F)cc1n2Cc1ccc([C@@H](C(=O)NCc2ccccc2)C2CCOCC2)cc1 [Example 24]	95	96	–	–	–	–	0.040	0.21	0.22	–	–	–
Cc1nc2c(c(C)c1CCC(=O)O)c1ccccc1n2Cc1ccc([C@@H](C(=O)N(C)C)C2CCOCC2)cc1 [Example 37, 3-(2,4-dimethyl-9-{4-[(S)-(dimethylcarbamoyl)(tetrahydro-2H-pyran-4-yl)methyl]benzyl}-9H-pyrido[2,3-b]indol-3-yl)propanoic acid]	57	62	–	0.71	0.71	29	–	–	–	–	–	–
Cc1nc2c(c(C)c1CCC(=O)O)c1ccccc1n2Cc1ccc([C@@H](C(=O)N2CC=CCC2)C2CCOCC2)cc1 [Example 40]	81	74	–	–	–	–	<0.1	0.47	0.28	12	–	–
Cc1nc2c(c(C)c1CCC(=O)O)c1ccccc1n2Cc1ccc([C@@H](C(=O)N2CCC(c3ccccc3)CC2)C2CCOCC2)cc1 [Example 45]	92	86	–	–	–	–	0.41	–	–	28	–	–
CCCCCN1CCN(C(=O)[C@H](c2ccc(Cn3c4ccccc4c4c(C)c(CCC(=O)O)c(C)nc43)cc2)C2CCOCC2)CC1 [Example 50]	94	90	–	–	–	–	0.19	0.48	0.41	3.2	–	–
COCCCN1CCN(C(=O)[C@H](c2ccc(Cn3c4ccccc4c4c(C)c(CCC(=O)O)c(C)nc43)cc2)C2CCOCC2)CC1 [Example 56]	41	63	–	–	–	–	1.1	0.9	1.3	7.2	–	–
Cc1nc2c(c(C)c1CCC(=O)O)c1ccccc1n2Cc1ccc([C@@H](C(=O)N2CCN(C3CCC3)CC2)C2CCOCC2)cc1 [Example 57]	89	86	–	–	–	–	0.88	0.74	0.56	8	–	–
Cc1nc2c(c(C)c1CCC(=O)O)c1ccccc1n2Cc1ccc([C@@H](C(=O)NCc2cccc(F)c2)C2CCOCC2)cc1 [Example 117]	98	98	–	–	–	–	0.032	–	–	2.2	–	–
Cc1cc(C)c2c3ccccc3n(Cc3ccc([C@@H](C(=O)N[C@@H](CO)c4ccccc4)C4CCCC4)cc3)c2n1 [Implitapide, reference compound]	–	–	–	–	–	–	1.0	1.0	1.1	–	15	14
